Publication PMC6792352, “Limited Chemical Structural Diversity Found to Modulate Thyroid Hormone Receptor in the Tox21 Chemical Library” (Environmental Health Perspectives, 2019)
Counter-ions that a name gives are not always drawn.

Experiment: in vitro
Conditions: rat, gh3-tre-luc cells, AC50 (uM) modified / 1000

| SMILES | CC50 at 24 h |
| --- | --- |
| CCCCOc1ccc(CC(=O)NO)cc1 [Bufexamac] | > 20 µM |
| CC1=C(C)S(=O)(=O)CCS1(=O)=O [Dimethipin] | > 90 µM |
| Nc1c(Cl)c(Cl)nc(C(=O)O)c1Cl [Picloram] | > 100 µM |
| C=CCOCC(O)CCl (centres unmarked) [Allyl 3-chloro-2-hydroxypropyl ether] | > 90 µM |
| O=C(O)Cc1ccc(Cl)cc1Cl [2,4-Dichlorophenylacetic acid] | > 90 µM |
| CCCCCCCCNC [N-Methyloctan-1-amine] | > 90 µM |
| C[N+]1(CC2COC(c3ccccc3)(C3CCCCC3)O2)CCCCC1 (centres unmarked) [Oxapium iodide] | > 50 µM |
| O=S(=O)(O)c1ccc2[nH]c(-c3ccccc3)nc2c1 [Ensulizole] | > 90 µM |
| CCN(CC)CCOC[C@H]1O[C@@H](O)[C@H](OCCN(CC)CC)[C@@H](O)[C@@H]1O [Diethylaminoethyl-sephacel] | > 50 µM |
| CC(=O)SCc1ccco1 [S-Furfuryl thioacetate] | > 90 µM |
| CCCCCCCCCCCCCCCCCC(=O)OCCCCCCCCCCCCCC(C)C [Isocetyl stearate] | > 90 µM |
| NC(=O)CC[C@@H]1NC(=O)[C@H](Cc2ccccc2)NC(=O)[C@H](Cc2ccc(O)cc2)NC(=O)[C@@H](N)CSSC[C@@H](C(=O)N2CCC[C@H]2C(=O)N[C@@H](CCCN=C(N)N)C(=O)NCC(N)=O)NC(=O)[C@H](CC(N)=O)NC1=O [Argipressin acetate] | > 50 µM |
| CC(=O)N1C[C@H](O)C[C@H]1C(=O)O [Oxaceprol] | > 50 µM |
| CC(=O)CCC1=C(C)CCCC1(C)C [Dihydro-beta-ionone] | > 90 µM |
| CCC(=O)CC [3-Pentanone] | > 90 µM |
| O=C(O)CCSCCC(=O)O [3,3'-Thiodipropionic acid] | > 90 µM |
| COc1c2ccoc2cc2oc(=O)ccc12 [5-Methoxypsoralen] | > 90 µM |
| CC(C[N+](C)(C)C)OC(N)=O (centres unmarked) [Bethanechol] | > 50 µM |
| Clc1ccccn1 [2-Chloropyridine] | > 90 µM |
| CC(=O)OCC(=O)[C@@]12OC3(CCCC3)O[C@@H]1C[C@H]1[C@@H]3CCC4=CC(=O)C=C[C@]4(C)[C@@]3(F)[C@@H](O)C[C@@]12C [Amcinonide] | > 50 µM |
| CCCCC(CC)COC(=O)c1ccc(C(=O)OCC(CC)CCCC)c(C(=O)OCC(CC)CCCC)c1 (centres unmarked) [Tris(2-ethylhexyl) trimellitate] | > 90 µM |
| C[C@@H](O)[C@H]1C(=O)N2C(C(=O)O)=C(S[C@@H]3CN[C@H](CNS(N)(=O)=O)C3)[C@H](C)[C@H]12 [Doripenem] | > 50 µM |

| SMILES | CC50 at 24 h |
| --- | --- |
| CCCCOCN(C(=O)CCl)c1c(CC)cccc1CC [Butachlor] | 49.4 µM |
| C=CCOC(=O)COCCC(C)C [Prop-2-en-1-yl (3-methylbutoxy)acetate] | > 90 µM |
| C[C@@]12CCC[C@H]1[C@@H]1CC[C@H]3C[C@@H](O)CC[C@]3(C)[C@H]1CC2 [5alpha-Androstan-3beta-ol] | > 50 µM |
| CC(=O)Oc1cccc2c1C(=O)c1c(OC(C)=O)cc(C(=O)O)cc1C2=O [Diacerein] | > 50 µM |
| CCCn1cc[n+](C)c1 [1-Methyl-3-propylimidazolium iodide] | > 90 µM |
| COS(C)(=O)=O [Methyl methanesulfonate] | > 100 µM |
| CCOC(=O)COc1ccc2c(C)c(CCN(CC)CC)c(=O)oc2c1 [Chromonar hydrochloride] | > 50 µM |
| CCCCCCCCCCCCOCCOCCOCCOCCOCCOCCOCCOCCOCCO [Polyoxyethylene (9) lauryl ether] | 9.84 µM |
| CC(=O)[C@H]1CC[C@H]2[C@@H]3C[C@H](C)C4=CC(=O)CC[C@]4(C)[C@H]3[C@@H](O)C[C@]12C [Medrysone] | > 20 µM |
| COc1ccc(-c2coc3cc(O)ccc3c2=O)cc1 [Formononetin] | > 90 µM |
| CC(=O)Oc1ccc(C(c2ccc(OC(C)=O)cc2)c2ccccn2)cc1 [Bisacodyl] | > 90 µM |
| C=CCOCC(O)CO (centres unmarked) [Glycerol 1-allylether] | > 90 µM |
| O=P1(N(CCCl)CCCl)NCCCO1 (centres unmarked) [Cyclophosphamide monohydrate] | > 90 µM |
| CNCC(=O)c1ccc(O)c(O)c1 [Adrenone] | > 50 µM |
| CCCCN(CCCC)C(=S)S [Sodium dibutylcarbamodithioate] | > 90 µM |
| O=[N+]([O-])c1c(Cl)cc(Cl)cc1Cl [2,4,6-Trichloronitrobenzene] | > 90 µM |
| BrCC(Br)(Br)Br [1,1,1,2-Tetrabromoethane] | > 90 µM |
| O=S(=O)(O)c1ccc2cc(O)c(S(=O)(=O)O)cc2c1 [Disodium 3-hydroxynaphthalene-2,7-disulfonate] | > 90 µM |
| NS(=O)(=O)c1cc(C(=O)O)cc(N2CCCC2)c1Oc1ccccc1 [Piretanide] | > 20 µM |
| O=C(O)c1snc(Cl)c1Cl [3,4-Dichloro-5-isothiazolecarboxylic acid] | > 90 µM |
| CCN(CCCc1ccccc1)CCCc1ccccc1 [Alverine citrate] | > 20 µM |
| C=C(C)C(=O)OCCO [2-Hydroxyethyl methacrylate] | > 90 µM |

| SMILES | CC50 at 24 h |
| --- | --- |
| CCO/N=C(\CC)C1=C(O)CC(c2c(C)cc(C)cc2C)CC1=O (centres unmarked) [Tralkoxydim] | > 90 µM |
| O=C(O)CCc1nc(-c2ccccc2)c(-c2ccccc2)o1 [Oxaprozin] | > 50 µM |
| O=[N+]([O-])c1c(Cl)cccc1-c1c[nH]cc1Cl [Pyrrolnitrin] | 23.7 µM |
| Nc1n[nH]c(N)n1 [Guanazole] | > 90 µM |
| CC1(COc2ccc(CC3SC(=O)NC3=O)cc2)CCCCC1 (centres unmarked) [Ciglitizone] | 26.4 µM |
| C[Si]1(C)O[Si](C)(C)O[Si](C)(C)O1 [Hexamethylcyclotrisiloxane] | > 90 µM |
| Clc1cccc(-c2cc(Cl)cc(Cl)c2)c1 [Aroclor 1016] | > 90 µM |
| CN1C[C@H](CNC(=O)OCc2ccccc2)C[C@@H]2c3cccc4c3c(cn4C)C[C@H]21 [Metergoline] | 8.07 µM |
| NC(=O)NNC(N)=O [Biurea] | > 90 µM |
| CC1=C(/C=C/C(C)=C/C=C/C(C)=C/C(=O)Oc2c(C)c(C)c3c(c2C)CC[C@@](C)(CCC[C@H](C)CCC[C@H](C)CCCC(C)C)O3)C(C)(C)CCC1 [Tretinoin tocoferil] | > 50 µM |
| OCCc1ccccn1 [2-(Pyridin-2-yl)ethanol] | > 90 µM |
| C=C[C@@H](C)CCC=C(C)C [(S)-Citronellene] | > 90 µM |
| CC(=O)CC(=O)Nc1ccc(C)cc1C [N-(2,4-Dimethylphenyl)-3-oxobutanamide] | > 90 µM |
| C[C@]12CC[C@H]3[C@@H](CCC4=CC(=O)CC[C@@H]43)[C@@H]1CC[C@@H]2O [Nandrolone] | > 90 µM |
| COC(C=C(C)CCC=C(C)C)OC [1,1-Dimethoxy-3,7-dimethylocta-2,6-diene] | > 90 µM |
| O=C1OC(O)C(C(Cl)Cl)=C1Cl (centres unmarked) [3-Chloro-4-(dichloromethyl)-5-hydroxy-2(5H)-furanone] | 35 µM |
| C=C(C)C(=O)OCCCCCC [Hexyl methacrylate] | > 90 µM |
| CCC(Cc1c(I)cc(I)c(O)c1I)C(=O)O (centres unmarked) [Iophenoxic acid] | > 50 µM |
| O=c1[nH]nc(-c2ccc([N+](=O)[O-])o2)o1 [5-(5-Nitro-2-furyl)-1,3,4-oxadiazole-2-ol] | 67.5 µM |
| COc1ccc(C(=O)N2CCCC2=O)cc1 [Aniracetam] | > 50 µM |
| Clc1ccc(C(Cn2ccnc2)OCc2c(Cl)cccc2Cl)c(Cl)c1 (centres unmarked) [Isoconazole] | 13.8 µM |

Same assay, conditions: rat, gh3-tre-luc cells, AC50 (uM) modified / 1000, Tox21_110001=Tox21_111293; viability, 1 nM T3 present, 24 h

| SMILES | CC50 at 24 h |
| --- | --- |
| Clc1ccc(Cl)cc1 [1,4-Dichlorobenzene] | > 50 µM |

Same assay, conditions: rat, gh3-tre-luc cells, AC50 (uM) modified / 1000, Tox21_110001=Tox21_112025; viability, 1 nM T3 present, 24 h

| SMILES | CC50 at 24 h |
| --- | --- |
| C=CC[N+]1(C)CC[C@]23c4c5ccc(O)c4O[C@H]2C(=O)CC[C@@]3(O)[C@H]1C5 (some centres unmarked) [Naloxone methyliodide] | > 50 µM |

Same assay, conditions: rat, gh3-tre-luc cells, AC50 (uM) modified / 1000, Tox21_110001=Tox21_113161; viability, 1 nM T3 present, 24 h

| SMILES | CC50 at 24 h |
| --- | --- |
| C[C@]12CCC(=O)C=C1CC[C@@H]1[C@@H]2CC[C@@]2(C)[C@H]1CC[C@]2(C)O [17-Methyltestosterone] | > 50 µM |

Same assay, conditions: rat, gh3-tre-luc cells, AC50 (uM) modified / 1000, Tox21_110001=Tox21_200399; viability, 1 nM T3 present, 24 h

| SMILES | CC50 at 24 h |
| --- | --- |
| Clc1ccc(Cl)cc1 [1,4-Dichlorobenzene] | > 90 µM |

Same assay, conditions: rat, gh3-tre-luc cells, AC50 (uM) modified / 1000, Tox21_110001=Tox21_200572; viability, 1 nM T3 present, 24 h

| SMILES | CC50 at 24 h |
| --- | --- |
| O=[N+]([O-])c1ccc(CCl)cc1 [4-Nitrobenzyl chloride] | > 90 µM |

Same assay, conditions: rat, gh3-tre-luc cells, AC50 (uM) modified / 1000, Tox21_110001=Tox21_300586; viability, 1 nM T3 present, 24 h

| SMILES | CC50 at 24 h |
| --- | --- |
| ClC1=C(Cl)[C@]2(Cl)C3C(Cl)C(Cl)CC3[C@@]1(Cl)C2(Cl)Cl (some centres unmarked) [Chlordane] | 25.5 µM |

Same assay, conditions: rat, gh3-tre-luc cells, AC50 (uM) modified / 1000, Tox21_110001=Tox21_300621; viability, 1 nM T3 present, 24 h

| SMILES | CC50 at 24 h |
| --- | --- |
| ClC1=C(Cl)[C@]2(Cl)[C@@H]3[C@@H](Cl)[C@H]4O[C@H]4[C@@H]3[C@@]1(Cl)C2(Cl)Cl [Heptachlor epoxide] | 48.8 µM |

Same assay, conditions: rat, gh3-tre-luc cells, AC50 (uM) modified / 1000, Tox21_110001=Tox21_300743; viability, 1 nM T3 present, 24 h

| SMILES | CC50 at 24 h |
| --- | --- |
| CC(C)(C)c1cc([N+](=O)[O-])cc([N+](=O)[O-])c1O [Dinoterb] | 8.14 µM |

Same assay, conditions: rat, gh3-tre-luc cells, AC50 (uM) modified / 1000, Tox21_110001=Tox21_301527; viability, 1 nM T3 present, 24 h

| SMILES | CC50 at 24 h |
| --- | --- |
| C=C[Si]1(C)O[Si](C)(C=C)O[Si](C)(C=C)O[Si](C)(C=C)O1 (centres unmarked) [1,3,5,7-Tetramethyl-1,3,5,7-tetravinylcyclotetrasiloxane] | > 90 µM |

Same assay, conditions: rat, gh3-tre-luc cells, AC50 (uM) modified / 1000, Tox21_110001=Tox21_301917; viability, 1 nM T3 present, 24 h

| SMILES | CC50 at 24 h |
| --- | --- |
| CCOP(=O)(O)C(N)=O [Fosamine ammonium] | > 90 µM |

Same assay, conditions: rat, gh3-tre-luc cells, AC50 (uM) modified / 1000, Tox21_110001=Tox21_303401; viability, 1 nM T3 present, 24 h

| SMILES | CC50 at 24 h |
| --- | --- |
| O=P(O)(Oc1ccccc1)Oc1ccccc1 [Diphenyl phosphate] | > 90 µM |

Same assay, conditions: rat, gh3-tre-luc cells, AC50 (uM) modified / 1000, Tox21_110001=Tox21_400058; viability, 1 nM T3 present, 24 h

| SMILES | CC50 at 24 h |
| --- | --- |
| C[C@]12CCC(=O)C=C1CC[C@@H]1[C@@H]2CC[C@@]2(C)[C@H]1CC[C@]2(C)O [17-Methyltestosterone] | > 90 µM |
